Test results published in BindingDB's records for doi:10.1016/j.ejmech.2020.112655 (University of Michigan, 2020).
Bridge positions count the residues as written; N and C are the ends. Peptide text beside a SMILES is read from it.

Target: Eukaryotic translation initiation factor 4E (Homo sapiens, UniProt P06730)
Test: Binding affinity to recombinant human 10His-tagged eIF4E expressed in Escherichia coli BL21 (DE3) cells assessed as dissociation constant by surface plasmon resonance analysis

Chain of Eukaryotic translation initiation factor 4E (P06730 whole entry): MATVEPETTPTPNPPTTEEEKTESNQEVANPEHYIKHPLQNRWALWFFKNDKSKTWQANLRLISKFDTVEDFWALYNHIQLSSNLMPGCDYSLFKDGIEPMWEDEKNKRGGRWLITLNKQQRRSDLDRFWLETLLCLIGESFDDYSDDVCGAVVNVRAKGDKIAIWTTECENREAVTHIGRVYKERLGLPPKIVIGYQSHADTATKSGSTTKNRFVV

| koff [s⁻¹] | SMILES |
| --- | --- |
| 0.0069 | CC[C@H](C)[C@H](NC(=O)[C@H](CCCNC(=N)N)NC(C)=O)C(=O)N[C@H](C(=O)N[C@@H](Cc1ccc(O)cc1)C(=O)N[C@@H](CC(=O)O)C(=O)N[C@@H](CCCNC(=N)N)C(=O)N[C@H]1CCC(=O)NCCCC[C@@H](C(=O)N[C@@H](CS)C(=O)N[C@@H](CCCNC(=N)N)C(N)=O)NC(=O)[C@H](CCSC)NC(=O)[C@H](CC(C)C)NC(=O)[C@H](Cc2ccccc2)NC1=O)[C@@H](C)CC (Ac-RIIYDREFLMKCR-NH2; lactam 7-11) |
| 0.0042 | CC[C@H](C)[C@H](NC(=O)[C@H](CCCNC(=N)N)NC(C)=O)C(=O)N[C@H](C(=O)N[C@@H](Cc1ccc(O)cc1)C(=O)N[C@@H](CC(=O)O)C(=O)N[C@@H](CCCNC(=N)N)C(=O)N[C@H]1CCCCNC(=O)CC[C@@H](C(=O)N[C@@H](CS)C(=O)N[C@@H](CCCNC(=N)N)C(N)=O)NC(=O)[C@H](CCSC)NC(=O)[C@H](CC(C)C)NC(=O)[C@H](Cc2ccccc2)NC1=O)[C@@H](C)CC (Ac-RIIYDRKFLMECR-NH2; lactam 7-11) |
